Source: patent publication US20080070867A1, “2-Imidazolone and 2-Imidazolidinone Heterocyclic Inhibitors of Tyrosine Phosphatases” (Metabasis Therapeutics, Inc., priority 2005, published 2008)

biological target: T1, Human recombinant PTP-1B (Homo sapiens, UniProt P18031); test: Assay for PTP-1B Activity (pNPP substrate); assay type: biochemical; details: human recombinant PTP-1B (1-321) GST fusion, 2 mM pNPP, pH 7.4, 30° C., 20 min; read-out: Activity Code (IC50 range)
T1 construct: Human recombinant PTP-1B, containing amino acids 1-321, fused to GST enzyme; GST (glutathione S-transferase)
T1 sequence (P18031 1-321): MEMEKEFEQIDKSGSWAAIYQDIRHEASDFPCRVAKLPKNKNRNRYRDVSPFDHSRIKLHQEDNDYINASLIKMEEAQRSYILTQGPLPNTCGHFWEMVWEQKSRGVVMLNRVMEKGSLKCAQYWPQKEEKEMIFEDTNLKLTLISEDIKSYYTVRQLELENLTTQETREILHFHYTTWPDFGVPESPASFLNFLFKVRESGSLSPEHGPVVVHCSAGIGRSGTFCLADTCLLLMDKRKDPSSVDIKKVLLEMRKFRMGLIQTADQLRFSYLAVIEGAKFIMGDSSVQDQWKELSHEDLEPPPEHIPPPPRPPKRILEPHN
Text: The activity of the compounds as modulators of protein tyrosine phosphatase, including PTP-1B, may be measured in standard assays (see, e.g., Examples 41 and 42). Briefly, the assay described herein employs human recombinant PTP-1B and a pNPP substrate in a rescue assay.
Assay for PTP-1B Activity
Enzyme: Human recombinant PTP-1B, containing amino acids 1-321, fused to GST enzyme (glutathione S-transferase) purified by affinity chromatography (Huyer et al, 1997, J. Biol. Chem., 272, 843-852).
pNPP: p-Nitrophenyl Phosphate (Calbiochem)
Assay Buffer: 50 mM HEPES (pH 7.4), 100 mM NaCl, 2 mM EDTA, 3 mM DTT
(5×) pNPP substrate: 10 mM pNPP in assay buffer
Enzyme: 1 mg/ml PTP1B (1-321), dilute 1:200 in assay buffer
Assay buffer: 50 mM HEPES (pH 7.4), 100 mM NaCl, 2 mM EDTA, 3 mM DTT
Enzyme dilution buffer: 50 mM HEPES (pH 7.4), 100 mM NaCl, 2 mM EDTA, 3 mM DTT
Substrate 198 mM p-Nitrophenyl Phosphate (pNPP) store at 4° C.
The assay was carried out at 30° C. in 96 well plates. The reaction mixture in 60 ul contained 50 mM HEPES (pH 7.4), 100 mM NaCl, 2 mM EDTA, 3 mM DTT, and 2 mM p-Nitrophenyl Phosphate (pNPP). 5 ul of the test compound (inhibitor) dissolved in DMSO or DMSO alone for control was added to each well and the plate was mixed for 2 min. The reaction was initiated by adding 20 ul of diluted PTP1B (5 ng/ul in 50 mM HEPES (pH 7.4), 100 mM NaCl, 2 mM EDTA, 3 mM DTT). After 20 min at 30° C., the enzyme reaction was terminated by adding 100 ul of 2 M K2CO3 to each well. The phosphatase activity was detected by using Victor II plate reader (Wallac) with absorbance detection at 405 nm. All the assays were done at least in duplicate. The initial rate of pNP is plotted against the concentration of inhibitor.

| Compound | IC50 |
| --- | --- |
| CC(=O)Nc1cccc(Cn2cc(-c3ccc(S(C)(=O)=O)cc3)n(Cc3ccc(C(F)(F)P(=O)(O)O)c(Br)c3)c2=O)c1 [Compound 40, ({4-[3-(3-Acetylamino-benzyl)-5-(4-methanesulfonyl-phenyl)-2-oxo-2,3-dihydro-imidazol-1-ylmethyl]-2-bromo-phenyl}-difluoro-methyl)-phosphonic acid] | < 99 nM |
| COC(=O)c1ccc(-c2c[nH]c(=O)n2Cc2ccc(C(F)(F)P(=O)(O)O)c(Br)c2)cc1 [Compound 41, 4-{3-[3-Bromo-4-(difluoro-phosphono-methyl)-benzyl]-2-oxo-2,3-dihydro-1H-imidazol-4-yl}-benzoic acid methyl ester] | 250 to 2500 nM |
| Cn1cc(-c2ccc(C(=O)O)cc2)n(Cc2ccc(C(F)(F)P(=O)(O)O)c(Br)c2)c1=O [Compound 42, 4-{3-[3-Bromo-4-(difluoro-phosphono-methyl)-benzyl]-1-methyl-2-oxo-2,3-dihydro-1H-imidazol-4-yl}-benzoic acid] | 250 to 2500 nM |
| O=c1n(Cc2ccc(C(F)(F)P(=O)(O)O)c(Br)c2)ccn1-c1ccccc1 [Compound 43, {[2-Bromo-4-(2-oxo-3-phenyl-2,3-dihydro-imidazol-1-ylmethyl)-phenyl]-difluoro-methyl}-phosphonic acid] | 2500 to 25000 nM |
| O=c1n(Cc2ccccc2)cc(-c2cccs2)n1Cc1ccc(C(F)(F)P(=O)(O)O)c(Br)c1 [Compound 44, {[4-(3-Benzyl-2-oxo-5-thiophen-2-yl-2,3-dihydro-imidazol-1-ylmethyl)-2-bromo-phenyl]-difluoro-methyl}-phosphonic acid] | 250 to 2500 nM |
| COC(=O)/C=C/c1ccc(-c2cn(C3CC3)c(=O)n2Cc2ccc(C(F)(F)P(=O)(O)O)c(Br)c2)cc1 [Compound 45, 3-(4-{3-[3-Bromo-4-(difluoro-phosphono-methyl)-benzyl]-1-cyclopropyl-2-oxo-2,3-dihydro-1H-imidazol-4-yl}-phenyl)-acrylic acid methyl ester] | < 99 nM |
| O=C(O)/C=C/c1ccc(-c2cn(C3CC3)c(=O)n2Cc2ccc(C(F)(F)P(=O)(O)O)c(Br)c2)cc1 [Compound 46, 3-(4-{3-[3-Bromo-4-(difluoro-phosphono-methyl)-benzyl]-1-cyclopropyl-2-oxo-2,3-dihydro-1H-imidazol-4-yl}-phenyl)-acrylic acid] | < 99 nM |
| CCn1cc(-c2ccc(C(=O)OC)cc2)n(Cc2ccc(C(F)(F)P(=O)(O)O)c(Br)c2)c1=O [Compound 47, 4-{3-[3-Bromo-4-(difluoro-phosphono-methyl)-benzyl]-1-ethyl-2-oxo-2,3-dihydro-1H-imidazol-4-yl}-benzoic acid methyl ester] | 100 to 249 nM |
| CCCn1cc(-c2ccc(C(=O)OC)cc2)n(Cc2ccc(C(F)(F)P(=O)(O)O)c(Br)c2)c1=O [Compound 48, 4-{3-[3-Bromo-4-(difluoro-phosphono-methyl)-benzyl]-2-oxo-1-propyl-2,3-dihydro-1H-imidazol-4-yl}-benzoic acid methyl ester] | 100 to 249 nM |
| O=c1n(Cc2ccccc2)cc(-c2ccc3c(c2)CCCC3)n1Cc1ccc(C(F)(F)P(=O)(O)O)c(Br)c1 [Compound 49, ({4-[3-Benzyl-2-oxo-5-(5,6,7,8-tetrahydro-naphthalen-2-yl)-2,3-dihydro-imidazol-1-ylmethyl]-2-bromo-phenyl}-difluoro-methyl)-phosphonic acid] | 250 to 2500 nM |
| CS(=O)(=O)c1ccc(Cn2ccn(Cc3ccc(C(F)(F)P(=O)(O)O)c(Br)c3)c2=O)cc1 [Compound 50, ({2-Bromo-4-[3-(4-methanesulfonyl-benzyl)-2-oxo-2,3-dihydro-imidazol-1-ylmethyl]-phenyl}-difluoro-methyl)-phosphonic acid] | 250 to 2500 nM |
| COC(=O)COc1ccc(-c2cn(C3CC3)c(=O)n2Cc2ccc(C(F)(F)P(=O)(O)O)c(Br)c2)cc1 [Compound 51, (4-{3-[3-Bromo-4-(difluoro-phosphono-methyl)-benzyl]-1-cyclopropyl-2-oxo-2,3-dihydro-1H-imidazol-4-yl}-phenoxy)-acetic acid methyl ester] | 100 to 249 nM |

Now from value to compound:

| IC50 | Compound |
| --- | --- |
| < 99 nM | O=C(O)COc1ccc(-c2cn(C3CC3)c(=O)n2Cc2ccc(C(F)(F)P(=O)(O)O)c(Br)c2)cc1 [Compound 52, (4-{3-[3-Bromo-4-(difluoro-phosphono-methyl)-benzyl]-1-cyclopropyl-2-oxo-2,3-dihydro-1H-imidazol-4-yl}-phenoxy)-acetic acid] |
| 2500 to 25000 nM | CC(C)(C)C(=O)OCOC(=O)c1ccc(-c2cn(Cc3ccccc3)c(=O)n2Cc2ccc(C(F)(F)P(=O)(O)OCOC(=O)C(C)(C)C)c(Br)c2)cc1 [Compound 53, 4-[1-Benzyl-3-(3-bromo-4-{[(2,2-dimethyl-propionyloxy-methoxy)-hydroxy-phosphoryl]-difluoro-methyl}-benzyl)-2-oxo-2,3-dihydro-1H-imidazol-4-yl]-benzoic acid 2,2-dimethyl-propionyloxymethyl ester] |
| 100 to 249 nM | COC(=O)c1ccc(Cn2cc(-c3ccccc3)n(Cc3ccc(C(F)(F)P(=O)(O)O)c(Br)c3)c2=O)cc1 [Compound 54, 4-{3-[3-Bromo-4-(difluoro-phosphono-methyl)-benzyl]-2-oxo-4-phenyl-2,3-dihydro-imidazol-1-ylmethyl}-benzoic acid methyl ester] |
| 250 to 2500 nM | O=C(O)c1ccc(Cn2cc(-c3ccccc3)n(Cc3ccc(C(F)(F)P(=O)(O)O)c(Br)c3)c2=O)cc1 [Compound 55, 4-{3-[3-Bromo-4-(difluoro-phosphono-methyl)-benzyl]-2-oxo-4-phenyl-2,3-dihydro-imidazol-1-ylmethyl}-benzoic acid] |
| 2500 to 25000 nM | CC(C)(C)C(=O)OCOP(=O)(O)C(F)(F)c1ccc(Cn2c(-c3ccc(C#N)cc3)cn(Cc3ccccc3)c2=O)cc1Br [Compound 56, 2,2-Dimethyl-propionic acid ({4-[3-benzyl-5-(4-cyano-phenyl)-2-oxo-2,3-dihydro-imidazol-1-ylmethyl]-2-bromo-phenyl}-difluoro-methyl)-hydroxy-phosphinoyloxymethyl ester] |
| > 25000 nM | CC(C)(C)C(=O)OCOP(=O)(OCOC(=O)C(C)(C)C)C(F)(F)c1ccc(Cn2c(-c3ccc(C#N)cc3)cn(Cc3ccccc3)c2=O)cc1Br [Compound 57, 2,2-Dimethyl-propionic acid ({4-[3-benzyl-5-(4-cyano-phenyl)-2-oxo-2,3-dihydro-imidazol-1-ylmethyl]-2-bromo-phenyl}-difluoro-methyl)-(2,2-dimethyl-propionyloxy-methoxy)-phosphinoyloxymethyl ester] |
| 250 to 2500 nM | CS(=O)(=O)c1ccc(Cn2cc(-c3ccccc3)n(Cc3ccc(C(F)(F)P(=O)(O)O)c(Br)c3)c2=O)cc1 [Compound 58, ({2-Bromo-4-[3-(4-methanesulfonyl-benzyl)-2-oxo-5-phenyl-2,3-dihydro-imidazol-1-ylmethyl]-phenyl}-difluoro-methyl)-phosphonic acid] |
| 2500 to 25000 nM | CC(C)OC(=O)OC(C)OC(=O)c1ccc(-c2cn(Cc3ccccc3)c(=O)n2Cc2ccc(C(F)(F)P(=O)(O)OC(C)OC(=O)OC(C)C)c(Br)c2)cc1 (stereo not shown) [Compound 59, 4-[1-Benzyl-3-(3-bromo-4-{difluoro-[hydroxy-(1-isopropoxy-carbonyloxy-ethoxy)-phosphoryl]-methyl}-benzyl)-2-oxo-2,3-dihydro-1H-imidazol-4-yl]-benzoic acid 1-isopropoxy-carbonyloxy-ethyl ester] |
| 2500 to 25000 nM | COc1cccc(Cn2ccn(Cc3ccc(C(F)(F)P(=O)(O)O)c(Br)c3)c2=O)c1 [Compound 60, ({2-Bromo-4-[3-(3-methoxy-benzyl)-2-oxo-2,3-dihydro-imidazol-1-ylmethyl]-phenyl}-difluoro-methyl)-phosphonic acid] |
| 250 to 2500 nM | CCOC(=O)c1ccc(-n2ccn(Cc3ccc(C(F)(F)P(=O)(O)O)c(Br)c3)c2=O)cc1 [Compound 61, 4-{3-[3-Bromo-4-(difluoro-phosphono-methyl)-benzyl]-2-oxo-2,3-dihydro-imidazol-1-yl}-benzoic acid ethyl ester] |
